Publication PMC10004634 (PLOS ONE, 2023)

What was measured:
Assay in all cases: biochemical
Set-up in all cases: KINOMEscan scanMAX competition binding, DNA-tagged kinases, qPCR read-out, percent control at 300 nM
[1] = biological target: PRKG1 (Homo sapiens, UniProt Q13976); details: read-out: Percent control / Tirabrutinib
[2] = biological target: T1, SIK (Homo sapiens, UniProt P57059); details: read-out: Percent control / Zanubrutinib
T1 construct: gene SIK1

[3] = biological target: T2, PCTK1 (Homo sapiens, UniProt Q00536); details: read-out: Percent control / Zanubrutinib
T2 construct: gene CDK16
T2 sequence (Q00536 whole entry): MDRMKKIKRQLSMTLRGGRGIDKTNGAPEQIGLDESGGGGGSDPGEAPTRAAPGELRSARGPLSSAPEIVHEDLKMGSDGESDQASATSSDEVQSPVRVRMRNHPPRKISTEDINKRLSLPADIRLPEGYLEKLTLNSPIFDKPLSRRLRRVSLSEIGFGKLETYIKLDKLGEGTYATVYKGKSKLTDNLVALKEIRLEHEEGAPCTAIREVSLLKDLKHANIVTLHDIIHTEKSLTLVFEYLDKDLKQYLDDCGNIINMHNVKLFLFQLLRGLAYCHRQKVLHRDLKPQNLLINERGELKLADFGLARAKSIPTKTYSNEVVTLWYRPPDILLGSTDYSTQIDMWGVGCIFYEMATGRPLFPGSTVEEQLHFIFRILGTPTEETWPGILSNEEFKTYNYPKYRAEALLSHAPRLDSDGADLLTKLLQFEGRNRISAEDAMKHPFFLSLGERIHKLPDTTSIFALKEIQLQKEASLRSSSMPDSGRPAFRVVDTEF

[4] = biological target: PIK3CA(E545A) (Homo sapiens, UniProt P42336, E545A); details: read-out: Percent control / Zanubrutinib
Chain of PIK3CA(E545A) (P42336 whole entry E545A): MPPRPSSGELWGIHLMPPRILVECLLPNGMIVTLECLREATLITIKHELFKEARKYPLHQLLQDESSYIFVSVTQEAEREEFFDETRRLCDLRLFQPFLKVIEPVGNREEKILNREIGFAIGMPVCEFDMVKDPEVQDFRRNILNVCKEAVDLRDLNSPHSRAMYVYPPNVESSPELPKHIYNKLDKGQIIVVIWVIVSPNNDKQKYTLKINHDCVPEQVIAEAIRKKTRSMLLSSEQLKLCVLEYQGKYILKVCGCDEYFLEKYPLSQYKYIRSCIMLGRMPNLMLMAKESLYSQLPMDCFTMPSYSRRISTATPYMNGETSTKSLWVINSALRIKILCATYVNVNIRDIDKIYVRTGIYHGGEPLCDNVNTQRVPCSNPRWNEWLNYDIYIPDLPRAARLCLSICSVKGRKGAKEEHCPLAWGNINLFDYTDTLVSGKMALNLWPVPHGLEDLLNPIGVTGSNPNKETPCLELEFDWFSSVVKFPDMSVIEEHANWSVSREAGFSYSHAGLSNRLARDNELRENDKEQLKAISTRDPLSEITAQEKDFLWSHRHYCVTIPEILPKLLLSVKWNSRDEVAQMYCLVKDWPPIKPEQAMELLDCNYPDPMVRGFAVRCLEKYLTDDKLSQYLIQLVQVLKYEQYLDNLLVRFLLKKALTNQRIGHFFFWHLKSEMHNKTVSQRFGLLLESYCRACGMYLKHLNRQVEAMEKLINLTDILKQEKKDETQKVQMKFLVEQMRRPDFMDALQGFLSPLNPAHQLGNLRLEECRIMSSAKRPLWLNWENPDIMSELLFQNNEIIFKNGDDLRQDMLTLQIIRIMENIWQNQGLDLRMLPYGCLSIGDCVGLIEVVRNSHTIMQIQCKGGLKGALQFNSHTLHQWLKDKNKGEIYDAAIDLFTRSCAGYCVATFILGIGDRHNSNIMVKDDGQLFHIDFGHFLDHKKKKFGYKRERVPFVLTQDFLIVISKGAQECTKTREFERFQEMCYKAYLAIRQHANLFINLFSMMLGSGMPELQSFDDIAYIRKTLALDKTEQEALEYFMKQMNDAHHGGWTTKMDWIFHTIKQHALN

[5] = biological target: STK39 (Homo sapiens, UniProt Q9UEW8); details: read-out: Percent control / Zanubrutinib
[6] = biological target: T3, MEK4 (Homo sapiens, UniProt P45985); details: read-out: Percent control / Zanubrutinib
T3 construct: gene MAP2K4

[7] = biological target: T4, MST1 (Homo sapiens, UniProt Q13043); details: read-out: Percent control / Zanubrutinib
T4 construct: gene STK4

[8] = biological target: CASK (Homo sapiens, UniProt O14936); details: read-out: Percent control / Zanubrutinib
[9] = biological target: T5, IKK-alpha (Homo sapiens, UniProt O15111); details: read-out: Percent control / Zanubrutinib
T5 construct: gene CHUK

[10] = biological target: CDK5 (Homo sapiens, UniProt Q00535); details: read-out: Percent control / Zanubrutinib
[11] = biological target: T6, ABL1(T315I)-nonphosphorylated (Homo sapiens, UniProt P00519, T315I); details: read-out: Percent control / Acalabrutinib
T6 construct: nonphosphorylated

[12] = biological target: HIPK1 (Homo sapiens, UniProt Q86Z02); details: read-out: Percent control / Acalabrutinib
[13] = biological target: EPHA6 (Homo sapiens, UniProt Q9UF33); details: read-out: Percent control / Acalabrutinib
[14] = biological target: T7, ABL1-nonphosphorylated (Homo sapiens, UniProt P00519); details: read-out: Percent control / Acalabrutinib
T7 construct: nonphosphorylated

[15] = biological target: PKN2 (Homo sapiens, UniProt Q16513); details: read-out: Percent control / Acalabrutinib
[16] = biological target: CAMK1 (Homo sapiens, UniProt Q14012); details: read-out: Percent control / Acalabrutinib
[17] = biological target: T8, p38-gamma (Homo sapiens, UniProt P53778); details: read-out: Percent control / Acalabrutinib
T8 construct: gene MAPK12

[18] = biological target: EPHA1 (Homo sapiens, UniProt P21709); details: read-out: Percent control / Acalabrutinib
Chain of EPHA1 (P21709 whole entry): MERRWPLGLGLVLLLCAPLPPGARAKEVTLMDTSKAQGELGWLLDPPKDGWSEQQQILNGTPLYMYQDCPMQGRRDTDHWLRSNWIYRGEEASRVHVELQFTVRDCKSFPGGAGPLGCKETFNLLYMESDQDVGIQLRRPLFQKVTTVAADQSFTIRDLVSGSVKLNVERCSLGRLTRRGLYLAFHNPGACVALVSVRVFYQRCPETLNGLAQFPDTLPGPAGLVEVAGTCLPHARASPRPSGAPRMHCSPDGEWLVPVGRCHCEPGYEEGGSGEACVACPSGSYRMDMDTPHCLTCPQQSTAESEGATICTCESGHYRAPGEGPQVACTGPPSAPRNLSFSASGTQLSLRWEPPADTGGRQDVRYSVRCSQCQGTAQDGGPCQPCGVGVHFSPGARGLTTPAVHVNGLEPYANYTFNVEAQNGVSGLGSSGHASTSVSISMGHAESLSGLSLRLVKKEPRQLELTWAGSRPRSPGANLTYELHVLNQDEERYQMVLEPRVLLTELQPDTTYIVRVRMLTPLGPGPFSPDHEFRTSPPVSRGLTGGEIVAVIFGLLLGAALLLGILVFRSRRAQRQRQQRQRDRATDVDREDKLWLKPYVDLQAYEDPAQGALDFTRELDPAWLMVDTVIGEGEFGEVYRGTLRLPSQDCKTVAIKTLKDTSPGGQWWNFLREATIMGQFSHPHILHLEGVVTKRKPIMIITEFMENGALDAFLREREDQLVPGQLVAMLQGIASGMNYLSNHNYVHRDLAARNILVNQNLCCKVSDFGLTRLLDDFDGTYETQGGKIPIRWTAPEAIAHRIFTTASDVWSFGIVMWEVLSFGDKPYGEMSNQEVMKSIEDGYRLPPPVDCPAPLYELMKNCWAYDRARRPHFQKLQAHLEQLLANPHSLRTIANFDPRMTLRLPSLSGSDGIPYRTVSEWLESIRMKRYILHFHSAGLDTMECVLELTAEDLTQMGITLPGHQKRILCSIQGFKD

[19] = biological target: PIK3CG (Homo sapiens, UniProt P48736); details: read-out: Percent control / Acalabrutinib
[20] = biological target: PRKD3 (Homo sapiens, UniProt O94806); details: read-out: Percent control / Acalabrutinib
Chain of PRKD3 (O94806 whole entry): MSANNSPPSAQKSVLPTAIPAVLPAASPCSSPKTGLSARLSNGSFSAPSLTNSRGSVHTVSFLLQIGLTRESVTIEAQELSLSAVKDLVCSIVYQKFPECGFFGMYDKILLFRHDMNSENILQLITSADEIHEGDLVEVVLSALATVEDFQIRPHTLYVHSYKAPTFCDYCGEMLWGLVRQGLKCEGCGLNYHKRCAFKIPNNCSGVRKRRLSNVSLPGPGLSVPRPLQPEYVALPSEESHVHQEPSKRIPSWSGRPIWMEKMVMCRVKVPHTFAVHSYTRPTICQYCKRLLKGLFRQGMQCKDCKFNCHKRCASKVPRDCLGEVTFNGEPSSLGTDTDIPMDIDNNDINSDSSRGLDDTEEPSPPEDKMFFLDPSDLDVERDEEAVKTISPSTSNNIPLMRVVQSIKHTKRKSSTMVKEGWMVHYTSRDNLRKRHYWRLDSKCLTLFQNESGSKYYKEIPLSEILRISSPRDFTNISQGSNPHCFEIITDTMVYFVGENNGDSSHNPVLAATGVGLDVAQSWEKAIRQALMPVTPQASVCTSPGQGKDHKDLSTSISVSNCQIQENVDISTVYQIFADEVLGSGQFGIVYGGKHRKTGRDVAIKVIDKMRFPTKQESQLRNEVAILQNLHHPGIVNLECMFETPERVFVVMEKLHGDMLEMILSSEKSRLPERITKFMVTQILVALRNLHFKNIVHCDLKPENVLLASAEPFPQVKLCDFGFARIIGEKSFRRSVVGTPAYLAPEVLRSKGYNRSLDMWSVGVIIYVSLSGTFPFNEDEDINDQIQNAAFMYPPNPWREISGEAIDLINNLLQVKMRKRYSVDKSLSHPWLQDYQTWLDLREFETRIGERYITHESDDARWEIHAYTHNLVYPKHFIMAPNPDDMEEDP

[21] = biological target: PIK3CA(H1047Y) (Homo sapiens, UniProt P42336, H1047Y); details: read-out: Percent control / Acalabrutinib
Chain of PIK3CA(H1047Y) (P42336 whole entry H1047Y): as the sequence (P42336 whole entry E545A) above, with A545E, H1047Y counted along it

[22] = biological target: NEK5 (Homo sapiens, UniProt Q6P3R8); details: read-out: Percent control / Acalabrutinib
[23] = biological target: ALK (Homo sapiens, UniProt Q9UM73); details: read-out: Percent control / Ibrutinib
Chain of ALK (Q9UM73 whole entry): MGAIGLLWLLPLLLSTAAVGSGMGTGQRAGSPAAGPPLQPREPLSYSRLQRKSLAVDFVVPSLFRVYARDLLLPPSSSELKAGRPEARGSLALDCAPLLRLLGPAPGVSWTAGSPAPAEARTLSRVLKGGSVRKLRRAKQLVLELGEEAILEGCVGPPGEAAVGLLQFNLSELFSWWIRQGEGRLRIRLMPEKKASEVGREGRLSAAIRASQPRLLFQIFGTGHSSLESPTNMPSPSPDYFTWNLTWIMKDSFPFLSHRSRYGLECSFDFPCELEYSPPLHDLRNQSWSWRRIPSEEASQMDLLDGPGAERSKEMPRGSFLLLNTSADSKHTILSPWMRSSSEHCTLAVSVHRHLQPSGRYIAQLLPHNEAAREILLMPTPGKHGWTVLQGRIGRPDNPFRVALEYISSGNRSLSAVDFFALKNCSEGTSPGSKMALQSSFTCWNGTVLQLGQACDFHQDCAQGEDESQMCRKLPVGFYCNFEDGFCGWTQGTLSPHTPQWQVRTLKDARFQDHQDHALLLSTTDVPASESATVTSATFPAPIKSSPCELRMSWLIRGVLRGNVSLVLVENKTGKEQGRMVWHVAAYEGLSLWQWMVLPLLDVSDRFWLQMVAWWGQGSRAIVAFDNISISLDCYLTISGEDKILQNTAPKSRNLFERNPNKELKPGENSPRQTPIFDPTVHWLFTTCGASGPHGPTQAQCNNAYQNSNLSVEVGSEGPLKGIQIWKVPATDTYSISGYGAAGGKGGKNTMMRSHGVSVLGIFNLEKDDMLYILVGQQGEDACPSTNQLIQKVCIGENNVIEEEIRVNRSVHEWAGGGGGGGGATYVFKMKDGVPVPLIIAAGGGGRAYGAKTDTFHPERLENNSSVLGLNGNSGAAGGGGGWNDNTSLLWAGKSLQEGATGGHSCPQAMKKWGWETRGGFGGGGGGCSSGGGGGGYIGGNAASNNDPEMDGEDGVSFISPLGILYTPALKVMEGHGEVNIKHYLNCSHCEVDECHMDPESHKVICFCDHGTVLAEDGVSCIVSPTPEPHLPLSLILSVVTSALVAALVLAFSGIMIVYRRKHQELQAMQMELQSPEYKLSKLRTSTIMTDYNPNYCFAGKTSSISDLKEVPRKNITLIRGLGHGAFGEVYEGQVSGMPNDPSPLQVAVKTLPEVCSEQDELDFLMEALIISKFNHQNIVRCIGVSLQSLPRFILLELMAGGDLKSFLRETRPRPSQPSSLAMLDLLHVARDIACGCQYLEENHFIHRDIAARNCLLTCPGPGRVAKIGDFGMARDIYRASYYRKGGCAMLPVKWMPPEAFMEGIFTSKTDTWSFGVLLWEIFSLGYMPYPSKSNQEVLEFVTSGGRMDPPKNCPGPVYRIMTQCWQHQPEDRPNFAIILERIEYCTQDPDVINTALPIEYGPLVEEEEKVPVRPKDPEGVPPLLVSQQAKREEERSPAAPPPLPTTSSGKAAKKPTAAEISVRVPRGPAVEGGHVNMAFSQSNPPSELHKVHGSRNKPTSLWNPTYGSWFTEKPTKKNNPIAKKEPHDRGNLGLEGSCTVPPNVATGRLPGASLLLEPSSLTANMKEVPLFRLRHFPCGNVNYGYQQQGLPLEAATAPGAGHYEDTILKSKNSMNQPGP

`CC#CC(=O)N1CC[C@@H](n2c(=O)n(-c3ccc(Oc4ccccc4)cc3)c3c(N)ncnc32)C1` [Tirabrutinib] showed a remaining binding at 0.3 µM [1] of 90%.

Compound `C=CC(=O)N1CCC([C@@H]2CCNc3c(C(N)=O)c(-c4ccc(Oc5ccccc5)cc4)nn32)CC1` [Zanubrutinib] has a remaining binding at 0.3 µM [2] of 100%, a remaining binding at 0.3 µM [3] of 100% and a remaining binding at 0.3 µM [4] of 59%. For the same compound, the remaining binding at 0.3 µM [5] was 96%, the remaining binding at 0.3 µM [6] was 93% and the remaining binding at 0.3 µM [7] was 90%. For the same compound, the remaining binding at 0.3 µM [8] was 72%, the remaining binding at 0.3 µM [9] was 84% and the remaining binding at 0.3 µM [10] was 98%.

Work on `CC#CC(=O)N1CCC[C@H]1c1nc(-c2ccc(C(=O)Nc3ccccn3)cc2)c2c(N)nccn12` [Acalabrutinib] yielded a remaining binding at 0.3 µM [11] of 96%, a remaining binding at 0.3 µM [12] of 85% and a remaining binding at 0.3 µM [13] of 93%. The remaining binding at 0.3 µM [14] was 87%, the remaining binding at 0.3 µM [15] was 93% and the remaining binding at 0.3 µM [16] was 58%. It also gave a remaining binding at 0.3 µM [17] of 75%, a remaining binding at 0.3 µM [18] of 85% and a remaining binding at 0.3 µM [19] of 99%. For the same compound, the remaining binding at 0.3 µM [20] was 81%, the remaining binding at 0.3 µM [21] was 70% and the remaining binding at 0.3 µM [22] was 96%.

Work on `C=CC(=O)N1CCC[C@@H](n2nc(-c3ccc(Oc4ccccc4)cc3)c3c(N)ncnc32)C1` [Ibrutinib] yielded a remaining binding at 0.3 µM [23] of 87%.
